DNA and IC50 data for seven compounds are collected here from ChEMBL document CHEMBL1122822 (1985).

Assay [1] relates to MCF7. Put plainly: Effect on the growth of MCF-7 cells at a concentration of 10 e-7 M, percentage of control value being 67. Type of assay: functional, Homo sapiens.
In assay [2] the test system is MCF7. Description: Effect of compound on the growth of MCF-7 cells at a concentration of 10 e-6 M, percentage of control value being 35. It counts as functional, Homo sapiens.
Assay [3] relates to MCF7. Description: Effect of compound with 10e-8 M estradiol on the growth of MCF-7 cells at a concentration 10 e-7 M, percentage of control value being 90. Type of assay: functional, Homo sapiens.
Assay [4] deals with MCF7. Put plainly: Effect of compound with 10e-8 M estradiol on the growth of MCF-7 cells at a concentration of 10 e-6 M, percentage of control value being 68. Type of assay: functional, Homo sapiens.
Assay [5] has as its system MCF7. Put plainly: Effect on the growth of MCF-7 cells at a concentration of,10 e-7 M, percentage of control value being 80. It counts as functional, Homo sapiens.
The test system of assay [6] is MCF7. Description: Effect of compound with 10e-8 M estradiol on the growth of MCF-7 cells at a concentration 10 e-7 M, percentage of control value being 13. It counts as functional, Homo sapiens.
In assay [7] the test system is MCF7. Description: Effect of compound with 10e-8 M estradiol on the growth of MCF-7 cells at a concentration of,10 e-6 M, percentage of control value being 74. It counts as functional, Homo sapiens.
Assay [8] deals with MCF7. Description: Effect on the growth of MCF-7 cells at a concentration of,10 e-7 M, percentage of control value being 87. Type of assay: functional, Homo sapiens.
Assay [9] concerns MCF7. Put plainly: Effect of compound on the growth of MCF-7 cells at a concentration of,10 e-6 M, percentage of control value being 85. Type of assay: functional, Homo sapiens.
In assay [10] the test system is MCF7. Put plainly: Effect of compound with 10e-8 M estradiol on the growth of MCF-7 cells at a concentration 10 e-7 M, percentage of control value being 77. It counts as functional, Homo sapiens.
Assay [11] deals with MCF7. Description: Effect on the growth of MCF-7 cells at a concentration of,10 e-7 M, percentage of control value being 84. It counts as functional, Homo sapiens.
In assay [12] the test system is MCF7. Put plainly: Effect of compound on the growth of MCF-7 cells at a concentration of,10 e-6 M, percentage of control value being 63. Type of assay: functional, Homo sapiens.
The subject of assay [13] is MCF7. Description: Effect of compound with 10e-8 M estradiol on the growth of MCF-7 cells at a concentration 10 e-7 M, percentage of control value being 91. Type of assay: functional, Homo sapiens.
Assay [14] deals with MCF7. Description: Effect of compound with 10e-8 M estradiol on the growth of MCF-7 cells at a concentration of,10 e-6 M, percentage of control value being 90. It counts as functional, Homo sapiens.
In assay [15] the test system is MCF7. Put plainly: Effect of compound with 10e-8 M estradiol on the growth of MCF-7 cells at a concentration 10 e-7 M, percentage of control value being 12. It counts as functional, Homo sapiens.
Assay [16] deals with MCF7. Put plainly: Effect on the growth of MCF-7 cells at a concentration of,10 e-7 M, percentage of control value being 20. It counts as functional, Homo sapiens.
For assay [17], the system named is MCF7. Description: Effect on the growth of MCF-7 cells at a concentration of 10 e-7 M, percentage of control value being 36. Type of assay: functional, Homo sapiens.
For assay [18], the system named is MCF7. Description: Effect of compound on the growth of MCF-7 cells at a concentration of 10 e-7 M Experiment 2, percentage of control value being 15. It counts as functional, Homo sapiens.
Assay [19] relates to MCF7. Description: Effect of compound with 10e-8 M estradiol on the growth of MCF-7 cells at a concentration of 10 e-6 M, percentage of control value being 32. It counts as functional, Homo sapiens.
Assay [20] deals with MCF7. Put plainly: Effect of compound with 10e-8 M estradiol on the growth of MCF-7 cells at a concentration 10 e-7 M, percentage of control value being 85. Type of assay: functional, Homo sapiens.
For assay [21], the system named is MCF7. Description: Effect of compound on the growth of MCF-7 cells at a concentration of 10 e-6 M, percentage of control value being 23. Type of assay: functional, Homo sapiens.
For assay [22], the system named is MCF7. Put plainly: Effect of compound on the growth of MCF-7 cells at a concentration of 10 e-6 M Experiment 2, percentage of control value being 13. It counts as functional, Homo sapiens.
The target in assay [23] is Estrogen receptor (Rattus norvegicus) (UniProt P06211+Q62986).
Description: In vitro relative binding affinity for rat uterine estrogen receptor compared to [3H]estradiol

Consider `CC/C(=C(/c1ccc(OCCN(C)C)cc1)c1cccc(O)c1)c1ccccc1` [DROLOXIFENE], for which the DNA in the assay with MCF7 [1] came to 11.2 µg; in the assay on MCF7 [2] it was 5.9 µg; in the assay on MCF7 [3] it was 15 µg; in the assay with MCF7 [4], 11.3 µg.

Take `CC/C(=C(/c1ccc(OCCN(C)C)cc1)c1ccc(O)cc1O)c1ccccc1`: the DNA amounted to 6.6 µg in the assay on MCF7 [5] and 1.1 µg with MCF7 [6].

As to `CC/C(=C(/c1ccc(OCCN(C)C)cc1)c1ccccc1O)c1ccccc1`, the DNA in the assay on MCF7 [7] came to 12.4 µg; with MCF7 [8] it was 14.6 µg; in the assay on MCF7 [9] it was 14.2 µg; in the assay on MCF7 [10] it was 12.8 µg.

Consider `CC/C(=C(\c1ccccc1)c1ccc(OCCN(C)C)cc1)c1ccccc1` [TAMOXIFEN], for which the DNA in the assay with MCF7 [11] was found to be 14 µg; in the assay with MCF7 [12] it was 10.6 µg; in the assay on MCF7 [13], 15.2 µg; in the assay on MCF7 [14], 15.1 µg.

On to `CC/C(=C(/c1ccc(OCCN(C)C)cc1)c1ccc(O)cc1C)c1ccccc1`, for which the DNA with MCF7 [15] came to 1 µg; in the assay on MCF7 [16], 1.6 µg.

As to `CCC(=C(c1ccc(O)cc1)c1ccc(OCCN(C)C)cc1)c1ccccc1`, the DNA in the assay with MCF7 [17] was determined as 6 µg; in the assay on MCF7 [18], 1.2 µg; in the assay on MCF7 [19], 5.4 µg; with MCF7 [20], 14.2 µg; in the assay with MCF7 [21], 3.8 µg; in the assay with MCF7 [22], 1.1 µg.

Usually IC50 stands for the concentration needed to halve the response being measured. The low end stands for higher potency, the high end for lower potency. As for `CC/C(=C(\c1ccccc1)c1ccc(OCCN(C)C)cc1)c1cccc(O)c1`, half-maximal inhibition in assay [23] (IC50) required 30 nM.
